Experimental data reported in US8471005B2 (Cephalon, Inc., priority 2008, dated 2013).
Like-named read-outs stand apart in the source and are kept apart here.

Columns and labels:
ALK = target: T1, ALK (Homo sapiens, UniProt Q9UM73); assay: ALK Kinase Assay (ELISA/TRF, PLC-γ substrate); format: biochemical; conditions: read-out: ALK Potency
T1 construct: host or cells: baculovirus expression system
Summary of the method: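 First, plates are coated with substrate (phospholipase C-γ, 10 μg/mL, TBS). Next, 30 ng/ml ALK initiates phosphorylation for 15 min at 37° C. Then Eu-N1 PT66 antibody is added for detection, and a nonlinear dose-response fit of percent inhibition yields IC50.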

JAK2 = target: T2, JAK2 (Homo sapiens, UniProt O60674); assay: Recombinant Human JAK2 Kinase Assay (TRF); format: biochemical; conditions: read-out: JAK2 Potency
T2 construct: host or cells: baculovirus expression system
T2 sequence (O60674 whole entry): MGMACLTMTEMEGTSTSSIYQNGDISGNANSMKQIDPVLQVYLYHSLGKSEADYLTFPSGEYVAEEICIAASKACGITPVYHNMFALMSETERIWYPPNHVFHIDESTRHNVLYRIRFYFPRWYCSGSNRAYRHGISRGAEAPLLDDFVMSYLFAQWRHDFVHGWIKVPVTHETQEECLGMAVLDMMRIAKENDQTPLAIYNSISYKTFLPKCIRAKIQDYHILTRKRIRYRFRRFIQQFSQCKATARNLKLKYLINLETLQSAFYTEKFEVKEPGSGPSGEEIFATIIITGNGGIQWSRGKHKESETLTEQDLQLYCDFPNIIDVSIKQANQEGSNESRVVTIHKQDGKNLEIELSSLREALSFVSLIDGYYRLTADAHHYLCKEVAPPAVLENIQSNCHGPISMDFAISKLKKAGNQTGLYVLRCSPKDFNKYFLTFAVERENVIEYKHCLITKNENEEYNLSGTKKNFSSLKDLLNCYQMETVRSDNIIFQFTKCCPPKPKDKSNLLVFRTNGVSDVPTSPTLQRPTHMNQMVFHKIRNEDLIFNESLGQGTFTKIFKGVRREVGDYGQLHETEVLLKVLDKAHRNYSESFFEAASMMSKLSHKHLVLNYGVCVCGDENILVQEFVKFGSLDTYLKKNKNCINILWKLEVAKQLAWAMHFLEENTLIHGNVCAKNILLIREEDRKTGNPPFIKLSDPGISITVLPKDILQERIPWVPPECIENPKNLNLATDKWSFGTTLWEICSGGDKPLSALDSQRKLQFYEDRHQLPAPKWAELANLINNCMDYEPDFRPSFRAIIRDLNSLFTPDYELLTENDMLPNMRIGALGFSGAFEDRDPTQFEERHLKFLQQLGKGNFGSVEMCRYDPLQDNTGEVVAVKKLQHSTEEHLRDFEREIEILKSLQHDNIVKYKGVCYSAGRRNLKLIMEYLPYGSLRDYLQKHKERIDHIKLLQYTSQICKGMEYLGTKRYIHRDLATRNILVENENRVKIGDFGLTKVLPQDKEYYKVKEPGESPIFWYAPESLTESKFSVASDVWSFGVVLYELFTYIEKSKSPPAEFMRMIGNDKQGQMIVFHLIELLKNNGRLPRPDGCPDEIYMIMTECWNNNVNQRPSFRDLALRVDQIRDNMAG
Summary of the method: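 TRF read-out: Eu-N1 PY100 anti-phosphotyrosine antibody detects product. Enzyme is baculovirus-expressed JAK2 at 15 ng/ml; substrate is a biotinyl 15-mer peptide bound to Neutravidin-coated wells. Buffer 20 mM HEPES pH 7.2, 0.2 μM ATP, 1 mM MnCl2, 0.1% BSA, 2.5% DMSO final; 20 min, RT.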

[1] = ALK kinase inhibition, 1 μM ATP
[2] = JAK2 kinase inhibition, 0.2 μM ATP

T1 sequence (Q9UM73 19-1620): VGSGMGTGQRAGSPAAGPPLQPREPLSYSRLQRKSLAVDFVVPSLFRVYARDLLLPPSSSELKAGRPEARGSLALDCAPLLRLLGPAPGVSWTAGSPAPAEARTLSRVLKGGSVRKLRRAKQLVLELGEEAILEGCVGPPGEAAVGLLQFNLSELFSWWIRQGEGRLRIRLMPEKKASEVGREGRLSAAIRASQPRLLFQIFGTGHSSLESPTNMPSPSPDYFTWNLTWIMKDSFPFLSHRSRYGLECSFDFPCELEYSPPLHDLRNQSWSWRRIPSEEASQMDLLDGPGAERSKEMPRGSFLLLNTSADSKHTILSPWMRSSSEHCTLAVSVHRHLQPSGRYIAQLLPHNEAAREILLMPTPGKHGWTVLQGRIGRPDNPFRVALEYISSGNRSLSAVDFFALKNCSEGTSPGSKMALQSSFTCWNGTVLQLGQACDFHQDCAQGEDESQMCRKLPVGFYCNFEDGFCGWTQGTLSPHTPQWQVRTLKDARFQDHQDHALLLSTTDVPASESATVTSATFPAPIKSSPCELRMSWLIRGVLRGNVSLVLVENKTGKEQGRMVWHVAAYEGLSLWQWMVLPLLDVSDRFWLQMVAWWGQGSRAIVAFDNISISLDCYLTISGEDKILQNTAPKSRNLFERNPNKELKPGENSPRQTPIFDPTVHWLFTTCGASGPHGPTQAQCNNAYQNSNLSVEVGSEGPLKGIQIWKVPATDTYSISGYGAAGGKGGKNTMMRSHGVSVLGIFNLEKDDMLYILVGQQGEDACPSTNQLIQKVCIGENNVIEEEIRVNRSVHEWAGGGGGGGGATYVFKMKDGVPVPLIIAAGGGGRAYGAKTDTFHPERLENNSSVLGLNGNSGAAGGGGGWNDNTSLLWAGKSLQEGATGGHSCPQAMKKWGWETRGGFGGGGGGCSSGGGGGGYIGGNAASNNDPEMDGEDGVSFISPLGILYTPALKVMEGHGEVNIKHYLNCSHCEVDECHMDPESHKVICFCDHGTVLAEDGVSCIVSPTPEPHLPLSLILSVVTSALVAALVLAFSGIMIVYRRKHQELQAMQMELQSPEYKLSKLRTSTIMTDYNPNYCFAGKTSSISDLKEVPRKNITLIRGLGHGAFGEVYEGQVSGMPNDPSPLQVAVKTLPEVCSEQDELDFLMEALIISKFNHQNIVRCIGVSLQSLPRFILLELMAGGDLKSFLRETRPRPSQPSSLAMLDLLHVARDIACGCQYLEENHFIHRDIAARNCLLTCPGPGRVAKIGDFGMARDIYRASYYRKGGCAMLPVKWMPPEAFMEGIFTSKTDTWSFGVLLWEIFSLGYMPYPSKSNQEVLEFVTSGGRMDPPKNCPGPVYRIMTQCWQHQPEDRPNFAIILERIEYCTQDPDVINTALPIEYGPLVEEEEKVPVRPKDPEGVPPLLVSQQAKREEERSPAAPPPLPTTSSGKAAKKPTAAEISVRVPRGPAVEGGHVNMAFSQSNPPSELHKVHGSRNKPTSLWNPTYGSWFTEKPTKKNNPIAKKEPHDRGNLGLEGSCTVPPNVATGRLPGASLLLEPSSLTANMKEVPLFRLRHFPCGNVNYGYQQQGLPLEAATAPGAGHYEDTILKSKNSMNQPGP

SMILES	IC50 (ALK; ALK Kinase Inhibition) [nM]	IC50 (JAK2; JAK2 Kinase Inhibition) [nM]	IC50 (ALK; [1]) [nM]	IC50 (JAK2; [2]) [nM]
c1ccc(-c2ccc3cnc(Nc4ccc(N5CCOCC5)nc4)nn23)cc1 [Example 46, (6-Morpholin-4-yl-pyridin-3-yl)-(7-phenyl-pyrrolo[2,1-f][1,2,4]triazin-2-yl)-amine]	1000 to 10000	< 100		
COc1ccccc1-c1ccc2cnc(Nc3ccc(C4CC5CCC(C4)N5C)cc3)nn12 (stereo not drawn) [Example 945, [7-(2-Methoxy-phenyl)-pyrrolo[2,1-f][1,2,4]triazin-2-yl]-[4-(8-methyl-8-azabicyclo[3.2.1]oct-3-yl)-phenyl]-amine]			< 100	< 100
CN1C(=O)COc2cc(Nc3ncc4ccc(-c5cccnc5)n4n3)ccc21 [Example 649, 4-Methyl-7-(7-pyridin-3-yl-pyrrolo[2,1-f][1,2,4]triazin-2-ylamino)-4H-benzo[1,4]oxazin-3-one]			1000 to 10000	< 100
COc1ccccc1-c1ccc2cnc(Nc3ccc(=O)[nH]c3)nn12 [Example 591, 5-[7-(2-Methoxy-phenyl)-pyrrolo[2,1-f][1,2,4]triazin-2-ylamino]-1H-pyridin-2-one]			1000 to 10000	< 100
N#CCCn1cc(-c2ccc3cnc(Nc4ccc(C5CCN(CC(N)=O)CC5)cc4)nn23)cn1 [Example 933, 2-[4-(4-{7-[1-(2-Cyano-ethyl)-1H-pyrazol-4-yl]-pyrrolo[2,1-f][1,2,4]triazin-2-ylamino}-phenyl)-piperidin-1-yl]-acetamide]			100 to 1000	< 100
COc1ccc(-c2ccc3cnc(Nc4ccc5nc(C(F)(F)F)[nH]c5c4)nn23)cn1 [Example 1308, [7-(6-Methoxy-pyridin-3-yl)-pyrrolo[2,1-f][1,2,4]triazin-2-yl]-(2-trifluoromethyl-3H-benzimidazol-5-yl)-amine]			> 10000	< 100
COc1cc(C2CCN(C(C)C(N)=O)CC2)ccc1Nc1ncc2ccc(-c3ccccc3OC)n2n1 (stereo not drawn) [Example 1275, 2-(4-{3-Methoxy-4-[7-(2-methoxy-phenyl)-pyrrolo[2,1-f][1,2,4]triazin-2-ylamino]-phenyl}-piperidin-1-yl)-propionamide]			< 100	100 to 1000
CN1CCN(C(=O)N2CCC(c3ccc(Nc4ncc5ccc(-c6ccccc6N(C)S(C)(=O)=O)n5n4)cc3)CC2)CC1 [Example 503, N-Methyl-N-[2-(2-{4-[1-(4-methyl-piperazine-1-carbonyl)-piperidin-4-yl]-phenylamino}-pyrrolo[2,1-f][1,2,4]triazin-7-yl)-phenyl]-methanesulfonamide]			< 100	< 100
COc1cc(C2CCN(CC(N)=O)CC2)ccc1Nc1ncc2ccc(-c3cc(F)c(F)cc3N(C)S(C)(=O)=O)n2n1 [Example 746, 2-[4-(4-{7-[4,5-Difluoro-2-(methanesulfonyl-methyl-amino)-phenyl]-pyrrolo[2,1-f][1,2,4]triazin-2-ylamino}-3-methoxy-phenyl)-piperidin-1-yl]-acetamide]			< 100	1000 to 10000
COc1ccc2c(c1)cc1cnc(Nc3ccc(N4CCOCC4)cc3OC)nn12 [Example 269, (2-Methoxy-4-morpholin-4-yl-phenyl)-(7-methoxy-[1,2,4]triazino[1,6-a]indol-2-yl)-amine]	1000 to 10000	1000 to 10000		
CN(c1ccccc1-c1ccc2cnc(Nc3ccc4c(c3)CCN(CC(N)=O)C4)nn12)S(C)(=O)=O [Example 918, 2-(6-{7-[2-(Methanesulfonyl-methyl-amino)-phenyl]-pyrrolo[2,1-f][1,2,4]triazin-2-ylamino}-3,4-dihydro-1H-isoquinolin-2-yl)-acetamide]			100 to 1000	< 100
COc1cc2c(cc1Nc1ncc3ccc(-c4ccccc4N(C)S(C)(=O)=O)n3n1)CCC1(CCN(C)CC1)O2 [Example 996, N-(2-{2-[(7-methoxy-1′-methyl-3,4-dihydrospiro[chromene-2,4′-piperidin]-6-yl)amino]pyrrolo[2,1-f][1,2,4]triazin-7-yl}phenyl)-N-methylmethanesulfonamide]			< 100	1000 to 10000
O=C(c1ccc(Nc2ncc3ccc(-c4cccnc4)n3n2)cc1)N1CCOCC1 [Example 317, Morpholin-4-yl-[4-(7-pyridin-3-yl-pyrrolo[2,1-f][1,2,4]triazin-2-ylamino)-phenyl]-methanone]	1000 to 10000	< 100		
CS(=O)(=O)c1cccc(-c2ccc3cnc(Nc4cccc(C5(O)CCNCC5)c4)nn23)c1 [Example 1552, 4-{3-[7-(3-Methanesulfonyl-phenyl)-pyrrolo[2,1-f][1,2,4]triazin-2-ylamino]-phenyl}-piperidin-4-ol]	100 to 1000	< 100		
CN(c1cccc(-c2ccc3cnc(Nc4ccc(C5CCN(CCO)CC5)cc4)nn23)c1)S(C)(=O)=O [Example 961, N-[3-(2-{4-[1-(2-Hydroxy-ethyl)-piperidin-4-yl]-phenylamino}-pyrrolo[2,1-f][1,2,4]triazin-7-yl)-phenyl]-N-methyl-methanesulfonamide]			100 to 1000	< 100
COc1ccc(-c2ccc3cnc(Nc4cccc(C#N)c4)nn23)cn1 [Example 974, 3-[7-(6-Methoxy-pyridin-3-yl)pyrrolo[2,1f][1,2,4]triazin-2-ylamino]-benzonitrile]			1000 to 10000	< 100
CC(=O)Nc1cccc(Nc2ncc3ccc(-c4cccc(NC(=O)C(C)(C)C)c4)n3n2)c1 [Example 881, N-{3-[2-(3-Acetylamino-phenylamino)-pyrrolo[2,1-f][1,2,4]triazin-7-yl]-phenyl}-2,2-dimethyl-propionamide]			1000 to 10000	< 100
NC(=O)CN1CCC(c2ccc(Nc3ncc4ccc(-c5cccc(CO)c5)n4n3)cc2)CC1 [Example 1065, 2-(4-{4-[7-(3-Hydroxymethyl-phenyl)-pyrrolo[2,1-f][1,2,4]triazin-2-ylamino]-phenyl}-piperidin-1-yl)-acetamide]			100 to 1000	< 100
COc1ccc(-c2ccc3cnc(Nc4cccc(NCC(N)=O)c4)nn23)cn1 [Example 975, 2-{3-[7-(6-Methoxy-pyridin-3-yl)-pyrrolo[2,1-f][1,2,4]triazin-2-ylamino]-phenylamino}-acetamide]			1000 to 10000	< 100

Results, then the compound that gave them:

IC50 (ALK; ALK Kinase Inhibition) [nM]	IC50 (JAK2; JAK2 Kinase Inhibition) [nM]	IC50 (ALK; [1]) [nM]	IC50 (JAK2; [2]) [nM]	SMILES
< 100	< 100			COc1ccccc1-c1cc(Br)c2cnc(Nc3ccc(N4CCN(C)CC4)cc3)nn12 [Example 101, [5-Bromo-7-(2-methoxy-phenyl)-pyrrolo[2,1-f][1,2,4]triazin-2-yl]-[4-(4-methyl-piperazin-1-yl)-phenyl]-amine]
100 to 1000	< 100			CN1CCN(c2cccc(Nc3ncc4ccc(-c5cccc6c5OC(F)(F)O6)n4n3)c2)CC1 [Example 1534, [7-(2,2-Difluoro-benzo[1,3]dioxol-4-yl)-pyrrolo[2,1-f][1,2,4]triazin-2-yl]-[3-(4-methyl-piperazin-1-yl)-phenyl]-amine]
100 to 1000	< 100			CN1CCN(c2ccc(Nc3ncc4ccc(-c5cccc(C(=O)N6CCCC6)c5)n4n3)cc2)CC1 [Example 21, (3-{2-[4-(4-Methyl-piperazin-1-yl)-phenylamino]-pyrrolo[2,1-f][1,2,4]triazin-7-yl}-phenyl)-pyrrolidin-1-yl-methanone]
> 10000	< 100			COC(=O)c1cccc(-c2ccc3cnc(Nc4ccc(N5CCOCC5)cc4)nn23)c1 [Example 6, 3-[2-(4-Morpholin-4-yl-phenylamino)-pyrrolo[2,1-f][1,2,4]triazin-7-yl]-benzoic acid methyl ester]
100 to 1000	< 100			CN1CCN(c2ccc(Nc3ncc4ccc(-c5cccc(S(=O)(=O)N6CCCC6)c5)n4n3)cc2)CC1 [Example 367, [4-(4-Methyl-piperazin-1-yl)-phenyl]-{7-[3-(pyrrolidine-1-sulfonyl)-phenyl]-pyrrolo[2,1-f][1,2,4]triazin-2-yl}-amine]
		< 100	< 100	CN1CCN(c2ccc(Nc3ncc4ccc(Cc5ccccc5)n4n3)cc2)CC1 [Example 1140, (7-Benzyl-pyrrolo[2,1-f][1,2,4]triazin-2-yl)-[4-(4-methyl-piperazin-1-yl)-phenyl]-amine]
		< 100	< 100	COc1ccccc1-c1ccc2cnc(Nc3cccc(OCC4CCCN4C)c3)nn12 (stereo not drawn) [Example 1006]
< 100	< 100			CN1CCN(c2ccc(Nc3ncc4ccc(Sc5ccccc5)n4n3)cc2)CC1 [Example 78, [4-(4-Methyl-piperazin-1-yl)-phenyl]-(7-phenylsulfanyl-pyrrolo[2,1-f][1,2,4]triazin-2-yl)-amine]
< 100	< 100			Cc1cc(N2CCN(C)CC2)ccc1Nc1ncc2ccc(-c3cccc(Cl)c3)n2n1 [Example 68, [7-(3-Chloro-phenyl)-pyrrolo[2,1-f][1,2,4]triazin-2-yl]-[2-methyl-4-(4-methyl-piperazin-1-yl)-phenyl]-amine]
100 to 1000	< 100			CN1CCN(c2ccc(Nc3ncc4ccc(-c5ccc(S(=O)(=O)N(C)C)cc5)n4n3)cc2)CC1 [Example 83, N,N-Dimethyl-4-{2-[4-(4-methyl-piperazin-1-yl)-phenylamino]-pyrrolo[2,1-f][1,2,4]triazin-7-yl}-benzenesulfonamide]
< 100	100 to 1000			COc1cc(N2CCC(CN3CCN(C)CC3)CC2)ccc1Nc1ncc2ccc(-c3ccccc3OC)n2n1 [Example 468, {2-Methoxy-4-[4-(4-methyl-piperazin-1-ylmethyl)-piperidin-1-yl]-phenyl}-[7-(2-methoxy-phenyl)-pyrrolo[2,1-f][1,2,4]triazin-2-yl]-amine]
